Type in all cases: in vitro ADME
In data set [1] the target is CYP2C19 (Homo sapiens, UniProt P33261). Put plainly: CYP inhibition, CYP2C19. As to the method:
For PK analysis, 5 mg/kg of JH4 in 10% DMSO, 5% […] solution were intravenously injected and 10 mg/kg of JH4 in 10% NMP and 90% PEG400 solution were orally delivered. At pre-set time-points, blood concentration of JH4 was determined by LC-MS/MS analysis[22],[23]. Other chemicals were also tested using similar protocol. In vitro ADME studies (plasma protein binding, CYP inhibition, microsomal stability, plasma stability, and hERG inhibition) were performed by New Drug Development Center (Daegu, Korea) using standard protocols[24],[25].

Data set [2] deals with T1, CYP1A2 (Homo sapiens, UniProt P05177).
T1 sequence (P05177 1-516): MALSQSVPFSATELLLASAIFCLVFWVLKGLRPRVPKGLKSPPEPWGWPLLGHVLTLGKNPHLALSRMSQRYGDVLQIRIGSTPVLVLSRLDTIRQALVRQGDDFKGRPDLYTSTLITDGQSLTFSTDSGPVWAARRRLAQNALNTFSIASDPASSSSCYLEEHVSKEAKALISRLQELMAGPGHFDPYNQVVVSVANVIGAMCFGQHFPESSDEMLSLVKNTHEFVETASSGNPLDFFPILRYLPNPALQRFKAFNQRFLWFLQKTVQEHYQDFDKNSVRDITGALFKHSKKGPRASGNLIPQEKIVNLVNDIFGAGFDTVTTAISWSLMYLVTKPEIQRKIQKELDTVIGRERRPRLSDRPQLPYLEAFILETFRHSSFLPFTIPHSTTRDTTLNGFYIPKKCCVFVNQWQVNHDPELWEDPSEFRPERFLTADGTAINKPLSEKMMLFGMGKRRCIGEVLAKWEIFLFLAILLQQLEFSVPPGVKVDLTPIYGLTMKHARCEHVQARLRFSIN
Briefly: CYP inhibition, CYP1A2. The protocol: (§1) At pre-set time-points, blood concentration of JH4 was determined by LC-MS/MS analysis[22],[23]. Other chemicals were also tested using similar protocol. In vitro ADME studies (plasma protein binding, CYP inhibition, microsomal stability, plasma stability, and hERG inhibition) were performed by New Drug Development Center (Daegu, Korea) using standard protocols[24],[25].

The target of data set [3] is CYP2C9 (Homo sapiens, UniProt P11712). Put plainly: CYP inhibition, CYP2C9. On the set-up: unit not given here. As to the method:
as §1

From paper PMC7782499, “Progerinin, an optimized progerin-lamin A binding inhibitor, ameliorates premature senescence phenotypes of Hutchinson-Gilford progeria syndrome” (Communications Biology, 2021) come the findings set out here.

Where “and” joins values, the source holds several entries; their conditions need not be identical. Identical values can stand only once.

Sequence of CYP2C19 (P33261 whole entry): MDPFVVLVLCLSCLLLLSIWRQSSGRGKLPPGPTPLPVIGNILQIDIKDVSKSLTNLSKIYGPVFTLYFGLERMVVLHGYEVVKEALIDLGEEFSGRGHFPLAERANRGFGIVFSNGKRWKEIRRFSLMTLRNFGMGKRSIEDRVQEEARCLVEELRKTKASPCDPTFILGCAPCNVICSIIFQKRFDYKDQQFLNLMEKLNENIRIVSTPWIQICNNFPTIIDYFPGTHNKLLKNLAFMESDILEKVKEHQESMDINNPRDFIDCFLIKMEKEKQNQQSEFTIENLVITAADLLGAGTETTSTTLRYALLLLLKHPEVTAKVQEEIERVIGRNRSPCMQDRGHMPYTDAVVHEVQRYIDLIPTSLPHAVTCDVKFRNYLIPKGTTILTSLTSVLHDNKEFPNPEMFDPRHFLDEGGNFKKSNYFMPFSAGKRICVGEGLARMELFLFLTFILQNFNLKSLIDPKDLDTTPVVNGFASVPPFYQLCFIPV
Sequence of CYP2C9 (P11712 whole entry): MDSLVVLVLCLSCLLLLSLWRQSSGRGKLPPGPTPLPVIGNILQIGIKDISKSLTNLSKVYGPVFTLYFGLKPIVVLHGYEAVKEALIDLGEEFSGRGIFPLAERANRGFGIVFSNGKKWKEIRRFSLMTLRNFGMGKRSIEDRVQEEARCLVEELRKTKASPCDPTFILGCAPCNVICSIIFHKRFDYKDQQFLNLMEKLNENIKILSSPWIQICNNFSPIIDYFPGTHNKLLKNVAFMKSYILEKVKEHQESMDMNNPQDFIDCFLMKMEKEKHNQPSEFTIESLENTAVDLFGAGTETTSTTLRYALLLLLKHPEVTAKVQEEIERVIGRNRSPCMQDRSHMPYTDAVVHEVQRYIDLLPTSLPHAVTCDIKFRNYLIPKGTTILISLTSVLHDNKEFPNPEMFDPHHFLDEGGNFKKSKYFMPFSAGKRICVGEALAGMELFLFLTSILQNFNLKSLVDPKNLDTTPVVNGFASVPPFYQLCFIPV

`CC(=O)N1CCN(c2ccc(OCC3COC(Cn4ccnc4)(c4ccc(Cl)cc4Cl)O3)cc2)CC1` (stereo not drawn) [Ketoconazole, reference compound]: the CYP inhibition in data set [1] was 99.5 and > 100; in data set [2], 99.1; in data set [3] it was 100.
